According to patent US20080242688A1, “Method 741” (ASTRAZENECA AB, priority 2007, published 2008):
Where “and” joins values, the source holds several entries; their conditions need not be identical. Identical values can stand only once. Like-named read-outs stand apart in the source and are kept apart here.

Columns and labels:
[1] = Allometric scaling / predicted human pharmacokinetics
[2] = tested on: rats; assay: Nicotine drug discrimination; type: in vivo, rat
[3] = Single dose PK/TK, rat; type: in vivo; conditions: for AUC / Cmax / Tmax: in vivo
From the text: (§1) This section provides a summary of the pharmacokinetic and metabolism properties of AZD0328 derived from in vivo studies. […] The derived PK/TK parameters from these studies are presented in Table 4 for single dose studies (DMR4, 0619LR, 20030191PCR, DMO16, DMB10, DMW12, 50190, 0190DD and 03.330/1), and are presented in Table 5 multiple dose PK/TK studies (DMR4, 0612AR, DMB15, 50190, 0190DD and 0295AD).

[4] = Single dose PK/TK, ferret; conditions: in vivo
From the text: as §1

[5] = molecular target: α7 receptor (Rattus norvegicus, UniProt Q05941); assay: Pre-frontal cortex slice GABA sIPSC frequency; type: cell-based; conditions: rat PFC slice
From the text: (§2) In membranes prepared either from cultured, human recombinant α7 receptor-expressing, human embryonic kidney cells α7-HEK) or from rat brain hippocampus, AZD0328 competed with binding of an iodinated form of the high-affinity, selective α7 receptor antagonist snake toxin, [^125I]-α-bungarotoxin (BTX) (Table 1). In Xenopus oocytes injected with human, recombinant α7 receptor mRNA, AZD0328 activates whole cell currents (Table 2). […] In acutely dissociated rat hippocampal interneurons, AZD0328 elicits rapidly activated, desensitizing whole-cell current (Table 1), consistent with the known properties of rat neuronal α7 receptors. […] AZD0328 modulates synaptic function, consistent with the well-known role of α7 receptors as heteroreceptor modulators of glutamatergic and GABAergic synaptic function.

[6] = Respiratory effects, whole body plethysmography; type: in vivo; conditions: plasma; rat, oral; read-out: NOAEL on ventilatory function, total Cmax
Method: Effects of single oral doses of AZD0328 on mean, systolic and diastolic arterial blood pressures, heart rate, body temperature, locomotor activity and respiratory parameters were evaluated in rats by combining whole body plethysmography with telemetry (Table 3). […] The degree of hypertension, however, was similar at the 3 highest doses, which partly can be explained by the high individual variation in plasma exposure at each dose level. The effect on heart rate was, on the other hand, dose-related.
Effects of AZD0328 on respiratory function were evaluated in the combined cardiovascular/respiratory study in rats (Table 3). Respiratory rate, tidal volume, inspiratory and expiratory times, and peak inspiratory and expiratory flows were measured […].

[7] = molecular target: T1, mouse recombinant α7 receptor (Mus musculus, UniProt P49582); assay: Whole cell current, oocytes; type: cell-based; conditions: oocyte
T1 construct: expressed in transfected cells; host or cells: Xenopus oocytes
From the text: as §2

[8] = molecular target: T2, rat recombinant α7 receptor (Rattus norvegicus, UniProt Q05941); assay: Whole cell current, oocytes; type: cell-based; conditions: oocyte
T2 construct: expressed in transfected cells; host or cells: Xenopus oocytes
From the text: as §2

[9] = Multiple dose PK/TK, rat; type: in vivo
From the text: as §1

[10] = allometric scaling of in vivo data from rat and monkey
[11] = both sexes, rat 1M+1F, DMR4, single oral 2.16 mg/kg (10 μmol/kg)
[12] = female, rat 2F, 0619LR, single oral 149 mg/kg (690 μmol/kg)
[13] = male, rat 3M, 0619LR, single oral 201 mg/kg (930 μmol/kg)
[14] = male, rat 4M, 20030191PCR, single oral 1.08 mg/kg (5 μmol/kg)
[15] = male, rat 4M, 20030191PCR, single oral 32.4 mg/kg (150 μmol/kg)
[16] = male, rat 4M, 20030191PCR, single oral 54.1 mg/kg (250 μmol/kg)
[17] = male, rat 4M, 20030191PCR, single oral 86.5 mg/kg (400 μmol/kg)
[18] = male, ferret 4M, DMO16, single oral 10 mg/kg (46 μmol/kg)
[19] = both sexes, rat, in vivo, po, 2.16 mg/kg, rat 1F+1M, DMR4, 2.16 mg/kg (10 μmol/kg), day 1
[20] = both sexes, rat, in vivo, po, 2.16 mg/kg, rat 1F+1M, DMR4, 2.16 mg/kg (10 μmol/kg), day 7
[21] = female, rat, in vivo, po, 2.16 mg/kg, rat 4F, 0612AR, 2.16 mg/kg (10 μmol/kg), day 1
[22] = female, rat, in vivo, po, 2.16 mg/kg, rat 4F, 0612AR, 2.16 mg/kg (10 μmol/kg), day 30
[23] = female, rat, in vivo, po, 15.1 mg/kg, rat 4F, 0612AR, 15.1 mg/kg (70 μmol/kg), day 1
[24] = female, rat, in vivo, po, 15.1 mg/kg, rat 4F, 0612AR, 15.1 mg/kg (70 μmol/kg), day 30
[25] = female, rat, in vivo, po, 64.9 mg/kg, rat 4F, 0612AR, 64.9 mg/kg (300 μmol/kg), day 1
[26] = female, rat, in vivo, po, 64.9 mg/kg, rat 4F, 0612AR, 64.9 mg/kg (300 μmol/kg), day 30
[27] = male, rat, in vivo, po, 2.16 mg/kg, rat 4M, 062AR, 2.16 mg/kg (10 μmol/kg), day 30
[28] = male, rat, in vivo, po, 2.16 mg/kg, rat 4M, 0612AR, 2.16 mg/kg (10 μmol/kg), day 1
[29] = male, rat, in vivo, po, 15.1 mg/kg, rat 4M, 0612AR, 15.1 mg/kg (70 μmol/kg), day 1
[30] = male, rat, in vivo, po, 15.1 mg/kg, rat 4M, 0612AR, 15.1 mg/kg (70 μmol/kg), day 30
[31] = male, rat, in vivo, po, 64.9 mg/kg, rat 4M, 0612AR, 64.9 mg/kg (300 μmol/kg), day 1
[32] = male, rat, in vivo, po, 64.9 mg/kg, rat 4M, 0612AR, 64.9 mg/kg (300 μmol/kg), day 30

T2 sequence (Q05941 23-502): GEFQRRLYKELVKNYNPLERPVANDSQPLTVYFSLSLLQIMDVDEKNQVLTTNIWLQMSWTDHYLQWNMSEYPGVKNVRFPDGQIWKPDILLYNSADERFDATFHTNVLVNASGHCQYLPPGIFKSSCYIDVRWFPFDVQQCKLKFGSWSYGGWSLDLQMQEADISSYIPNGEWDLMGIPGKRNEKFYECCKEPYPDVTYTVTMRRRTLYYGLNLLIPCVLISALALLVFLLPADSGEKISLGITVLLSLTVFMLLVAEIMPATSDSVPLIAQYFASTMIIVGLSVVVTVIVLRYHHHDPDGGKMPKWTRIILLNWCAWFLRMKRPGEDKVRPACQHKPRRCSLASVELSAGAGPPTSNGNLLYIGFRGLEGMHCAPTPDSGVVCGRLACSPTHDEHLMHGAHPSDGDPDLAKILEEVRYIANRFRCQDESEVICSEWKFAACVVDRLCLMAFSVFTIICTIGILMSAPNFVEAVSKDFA
Chain of α7 receptor (Q05941 23-502): as above
T1 sequence (P49582 23-502): as the sequence (Q05941 23-502) above, with A402T counted along it

## c1cnc2c(c1)C[C@@]1(CN3CCC1CC3)O2 [AZD0328, (R)-Spiro[1-azabicyclo[2.2.2]octane-3,2′(3′H)-furo[2,3-b]pyridine]]
[1]; [10]
  predicted human Vdss: 2.7 L/kg
  predicted human systemic clearance: 5.9 mL/min/kg
[1]; one-compartment pharmacokinetic model
  human predicted half-life: 5.3 h
[2]; rat, sc
  dose up to which nicotine-like stimulus properties were lacking: properties at doses up to 5.4 mg/kg
[2]; rats trained to discriminate 0.3 mg/kg nicotine, sc
  nicotine-like stimulus effects: lack of nicotine-like stimulus properties
[2]; rats, doses up to 30 mg/kg sc
  rate of responding: severely depressed the rate of responding
[3]; [11]
  AUC: 699 ng·h/mL to 861 ng·h/mL and 3.23 µM·h to 3.98 µM·h
  Cmax: 251 ng/mL to 344 ng/mL and 1.16 µM to 1.59 µM
  Tmax: 0.5 to 1 h
[3]; [12]
  AUC: 76600 ng·h/mL and 354 µM·h
  Cmax: 4740 ng/mL to 11600 ng/mL and 21.9 µM
[3]; [13]
  AUC: 49800 ng·h/mL and 230 µM·h
  Cmax: 15.9 µM and 3440 ng/mL
[3]; [14]
  AUC: 441 ng·h/mL and 2.04 µM·h
  Cmax: 99.9 ng/mL and 462 nM
  Tmax: 1 h
[3]; [15]
  AUC: 26600 ng·h/mL and 123 µM·h
  Cmax: 2570 ng/mL and 11.9 µM
  Tmax: 1 h
[3]; [16]
  AUC: 37900 ng·h/mL and 175 µM·h
  Cmax: 4500 ng/mL and 20.8 µM
  Tmax: 1 h
[3]; [17]
  AUC: 90000 ng·h/mL and 416 µM·h
  Cmax: 6750 ng/mL and 31.2 µM
  Tmax: 1 h
[3]; rat 1M+1F, DMR4, oral 2.16 mg/kg vs iv 1.08 mg/kg
  F: 78-84%
[3]; rat, 1 mg per kg (minimum effective dose in fimbria fornix model)
  plasma concentrations: 290 to 1400 nM
[3]; rats, extended to mice, 0.001-0.1 mg per kg
  estimated plasma concentrations: 0.29 to 100 nM
[4]; ferret, read-out: elimination half-life
  half-life: < 5 h
[4]; [18]
  AUC: 4000 ng·h/mL and 18.3 µM·h
  Cmax: 590 ng/mL and 2.73 µM
  Tmax: 0.25 to 1 h
[4]; male, ferret 4M, DMO16, single oral 10 mg/kg (46 μmol/kg), read-out: T½ (converted)
  half-life: 3.98 ± 1.66 h
[5]
  EC50: 700 nM
[5]; read-out: Maximum response, GABA sIPSC frequency
  Emax: 330%
[6]
  Cmax: 31200 nM
[7]; mouse recombinant α7
  EC50: 1000 nM
[7]; mouse recombinant α7, 10 μM, read-out: Maximum response, whole cell current
  Emax: 83%
[8]; rat recombinant α7
  EC50: 1100 nM
[8]; rat recombinant α7, 10 μM, read-out: Maximum response, whole cell current
  Emax: 87%
[9]; [19]
  AUC: 699 ng·h/mL to 861 ng·h/mL and 3.23 µM·h to 3.98 µM·h
  Cmax: 251 ng/mL to 344 ng/mL and 1.16 µM to 1.59 µM
  Tmax: 0.5 to 1 h
[9]; [20]
  AUC: 2.77 µM·h to 3.96 µM·h and 599 ng·h/mL to 857 ng·h/mL
  Cmax: 212 to 324 ng/mL
  Cmax at 7 day: 981 to 1500 nM
  Tmax: 0.5 h
[9]; [21]
  AUC: 916 ng·h/mL and 7.25 µM·h
  Cmax at 1 day: 236 ng/mL and 1.87 µM
  Tmax at 1 day: 1 h
[9]; [22]
  AUC: 858 ng·h/mL and 6.79 µM·h
  Cmax at 30 day: 220 ng/mL and 1.74 µM
  Tmax at 30 day: 1 h
[9]; [23]
  AUC: 8120 ng·h/mL and 64.3 µM·h
  Cmax at 1 day: 984 ng/mL and 7.79 µM
  Tmax at 1 day: 1 h
[9]; [24]
  AUC: 9600 ng·h/mL and 76 µM·h
  Cmax at 30 day: 1420 ng/mL and 11.2 µM
  Tmax at 30 day: 1 h
[9]; [25]
  AUC: 40400 ng·h/mL and 320 µM·h
  Cmax: 2480 ng/mL and 19.6 µM
  Tmax: 1 to 3 h
[9]; [26]
  AUC: 42100 ng·h/mL and 333 µM·h
  Cmax: 2930 ng/mL and 23.2 µM
  Tmax: 1 h
[9]; [27]
  AUC: 412 ng·h/mL and 3.26 µM·h
  Cmax at 30 day: 154 ng/mL and 1.22 µM
  Tmax at 30 day: 1 h
[9]; [28]
  AUC: 528 ng·h/mL and 4.18 µM·h
  Cmax at 1 day: 189 ng/mL and 1.5 µM
  Tmax at 1 day: 1 h
[9]; [29]
  AUC: 4230 ng·h/mL and 33.5 µM·h
  Cmax at 1 day: 769 ng/mL and 6.09 µM
  Tmax at 1 day: 1 to 3 h
[9]; [30]
  AUC: 5630 ng·h/mL and 44.6 µM·h
  Cmax at 30 day: 1160 ng/mL and 9.21 µM
  Tmax at 30 day: 1 h
[9]; [31]
  AUC: 23900 ng·h/mL and 189 µM·h
  Cmax: 1670 ng/mL and 13.2 µM
  Tmax: 1 to 6 h
[9]; [32]
  AUC: 29300 ng·h/mL and 232 µM·h
  Cmax: 2780 ng/mL and 22 µM
  Tmax: 1 h
[9]; rat 1F+1M, DMR4, 2.16 mg/kg (10 μmol/kg), day 1
  AUC/dose: 0.323-0.398
[9]; rat 1F+1M, DMR4, 2.16 mg/kg (10 μmol/kg), day 7
  AUC/dose: 0.277-0.396
[9]; rat 4F, 0612AR, 2.16 mg/kg (10 μmol/kg), day 1
  AUC/dose: 0.725 ± 0.068
[9]; rat 4F, 0612AR, 2.16 mg/kg (10 μmol/kg), day 30
  AUC/dose: 0.679 ± 0.134
[9]; rat 4F, 0612AR, 15.1 mg/kg (70 μmol/kg), day 1
  AUC/dose: 0.919 ± 0.071
[9]; rat 4F, 0612AR, 15.1 mg/kg (70 μmol/kg), day 30
  AUC/dose: 1.09 ± 0.13
[9]; rat 4F, 0612AR, 64.9 mg/kg (300 μmol/kg), day 1
  AUC/dose: 1.07 ± 0.10
[9]; rat 4F, 0612AR, 64.9 mg/kg (300 μmol/kg), day 30
  AUC/dose: 1.11 ± 0.14
[9]; rat 4M, 062AR, 2.16 mg/kg (10 μmol/kg), day 30
  AUC/dose: 0.326 ± 0.084
[9]; rat 4M, 0612AR, 2.16 mg/kg (10 μmol/kg), day 1
  AUC/dose: 0.418 ± 0.062
[9]; rat 4M, 0612AR, 15.1 mg/kg (70 μmol/kg), day 1
  AUC/dose: 0.479 ± 0.037
[9]; rat 4M, 0612AR, 15.1 mg/kg (70 μmol/kg), day 30
  AUC/dose: 0.637 ± 0.043
[9]; rat 4M, 0612AR, 64.9 mg/kg (300 μmol/kg), day 1
  AUC/dose: 0.630 ± 0.083
[9]; rat 4M, 0612AR, 64.9 mg/kg (300 μmol/kg), day 30
  AUC/dose: 0.773 ± 0.057
